# Measured values: patent publication US20170112741A1, “AGENT FOR AMELIORATING SKIN SYMPTOM, HAIR GROWTH AGENT OR SLIMMING AGENT” (GOLDCREST MEDICINE INSTITUTE CO., LTD., priority 2014, published 2017)
# Assays:
# Type in all cases: in vivo, human
# [1] = Slimming effect of cabergoline 0.25 mg/week in patient A; settings: patient A
# Protocol: Due to an illness, patient A had to undergo the cabergoline treatment from the end of June of year 2013, and for this reason, attempted to lose weight again. Since it was expected that the body weight would be gained back, the target value was set at 56.5 kg, and a long-term plan without any exercise or restricted diet was adopted. However, regular meals were taken and only the overeating was strictly avoided.
# Meanwhile, since cabergoline was administered at 0.25 mg/week for 3 months of the measurement period, the total dose of cabergoline was calculated to be 3 mg. […] In this regard, it is considered that no side effect would appear with administration of such a small amount.
# seborrheic keratosis = experiment: Treatment of seborrheic keratosis generated from senile plaque by oral cabergoline; settings: patient A
# Excerpt: Investigation was made for the treatment of seborrheic keratosis generated from senile plaque. On the back side of the wrist of the right hand of patient A, there was seborrheic keratosis with width of 15 mm×length of 10 mm, which had remained as a problem for 13 years. In summer, elevation of the skin of about 4 mm with blackish brown color occurred.
# Furthermore, 2 years ago, seborrheic keratosis with width of 13 mm×length of 9 mm was caused from senile plaque on the back of the right hand, and elevation of the skin of about 2 mm with dark brown color was recognized. […] Thus, it is recognized that the seborrheic keratosis with a short clinical history is more responsive to the treatment.
# moles = experiment: Effect of oral cabergoline on 10 moles of the femoral region of the right leg; settings: Jan. 20, 2014, after 7 months oral cabergoline; for Color and shape of mole 1, upper part of side area / Color and shape of mole 2, lower part of side area: Jun. 20, 2013: Black rectangle
# Protocol: 10 moles were present within an area having a width of 10 cm and a length of 8 cm extending from the outer side to the front side of the femoral region of the right leg. After 7 months, the state of those 10 moles was observed and the effect of oral administration of cabergoline was investigated.
# For the first 4 weeks from […], one tablet (0.25 mg) of carbegoline was administered on Monday and Thursday. The total dose over the 4 weeks was 2 mg. For the following 26 weeks, one tablet of cabergoline was administered on every Thursday. The total dose of cabergoline over the 7-month treatment period was calculated to be 8.5 mg.
# senile plaques = experiment: Change in 5 senile plaques on the back of both hands of patient A under orally administered cabergoline
# Excerpt: To find out the pharmaceutical effect of orally administered cabergoline, a change in the symptom of 5 senile plaques occurring on the back of both hands of patient A was investigated for 10 weeks from Jun. 20, 2013 (Thursday) to Aug. 29, 2013 (Thursday).
# Patient A was a person with prolactin-producing pituitary adenoma. Before the clinical test of the treatment, patient A had dark brown circle-like senile plaques, specifically, 3 plaques on the back of the left hand (long diameter 11 mm×short diameter 8 mm, long diameter 8 mm×short diameter 6 mm, and long diameter 7 mm×short diameter 5 mm) and 2 plaques on the back of the right hand (long diameter 10 mm×short diameter 8 mm and long diameter 7 mm×short diameter 6 mm).
# According to the doctor's instruction, oral administration was performed twice/week, on Monday and Thursday, for the first 4 weeks (from June 20 to July 15), and the dose was 2 mg/4 weeks.
# A total of 1 mg of cabergoline were orally administered by this 4-week administration (administration dates are as follows: July 18, July 25, August 1, and August 8).
# The cabergoline administration on week 9 and week 10 was performed on August 15 (Thursday) and August 22 (Thursday).
# [2] = 0.25 mg/week, Sep. 5, 2013 (start of measurement period)
# [3] = listed as novel skin treatment agent
# [4] = Jun. 20, 2013: Dark brown circle
compound,measurement,setting,value
C=CCN1C[C@H](C(=O)N(CCCN(C)C)C(=O)NCC)C[C@@H]2c3cccc4[nH]cc(c34)C[C@H]21 [cabergoline],Obesity BMI,"[1]; 0.25 mg/week, October 3",25.7
same,Weight loss,"[1]; 0.25 mg/week, October 3, since previous measurement",1.2 kg
same,Total weight loss (%),"[1]; 0.25 mg/week, October 3, vs Sep. 5, 2013",−3.5%
same,Body weight,"[1]; 0.25 mg/week, October 17",59.1 kg
same,Obesity BMI,"[1]; 0.25 mg/week, October 17",25.2
same,Weight loss,"[1]; 0.25 mg/week, October 17, since previous measurement",1.0 kg
same,Total weight loss (%),"[1]; 0.25 mg/week, October 17, vs Sep. 5, 2013",−5.1%
same,Body weight,"[1]; 0.25 mg/week, October 31",58.3 kg
same,Obesity BMI,"[1]; 0.25 mg/week, October 31",24.9
same,Weight loss,"[1]; 0.25 mg/week, October 31, since previous measurement",0.8 kg
same,Total weight loss (%),"[1]; 0.25 mg/week, October 31, vs Sep. 5, 2013",−6.4%
same,Body weight,[1]; [2],62.3 kg
same,Obesity BMI,[1]; [2],26.6
same,Body weight,"[1]; 0.25 mg/week, September 19",61.3 kg
same,Obesity BMI,"[1]; 0.25 mg/week, September 19",26.2
same,Weight loss,"[1]; 0.25 mg/week, September 19, since previous measurement",1.0 kg
same,Total weight loss (%),"[1]; 0.25 mg/week, September 19, vs Sep. 5, 2013",−1.6%
same,Time after which BMI was decreased to a normal level,"[1]; oral administration, normal BMI 21.5 to 24.9",8 weeks
same,Body weight,"[1]; Mar. 14, 2015",54.2 kg
same,Obesity BMI,"[1]; Mar. 14, 2015",23.2
same,Weight loss,"[1]; Mar. 14, 2015, since previous measurement",1.9 kg
same,Total weight loss (%),"[1]; Mar. 14, 2015, vs Sep. 5, 2013",−13.0%
same,Color of seborrheic keratosis on back side of right wrist,"seborrheic keratosis; 13 years history, oral cabergoline over the last year",faded from blackish brown to brown
same,Color of seborrheic keratosis on the back of the right hand,"seborrheic keratosis; as of March 22, initially dark brown",faded to pale yellow brown
same,"Elevation of the skin, seborrheic keratosis on back side of right wrist","seborrheic keratosis; lesion width 15 mm×length 10 mm, 13 years history, elevation about 4 mm, oral cabergoline over the last year",became flattened
same,Appearance of all 4 moles on the front area,moles,"turned into faint flesh colored, pigmented macules"
same,Diameter of the 2 light brown circular moles sandwiching the red moles of the middle area,moles,1 mm
same,Diameter of the remaining 2 small front-area moles,moles,1 mm
same,Size change of the front-area moles of 4.5 mm and 3 mm,moles,hardly shrunk
same,"Appearance of mole 7, upper part of front area","moles; Jun. 20, 2013: 3.3 × 3.1 Brown circle-like, cell continues: flesh color",Turned into weak pigmented macules having
same,"Size change of mole 7, upper part of front area","moles; Jun. 20, 2013: 3.3 × 3.1 mm",flesh color with almost no change in size
same,"Color and shape of mole 1, upper part of side area",moles,dark brown rectangular mole
same,"Color and shape of mole 2, lower part of side area",moles,faded light brown oval mole with an unclear border
same,"Color and shape of mole 1, upper part of side area",moles; [3],Dark brown rectangle
same,"Color and shape of mole 2, lower part of side area",moles; [3],"Faint, light brown rectangle"
same,"Color and shape of mole 4, central left part of middle area","moles; Jun. 20, 2013: Brown rectangle",Light red circle-like
same,"Color and shape of mole 3, upper part of middle area",moles; [4],"Faint, light brown circle"
same,"Color and shape of mole 6, lower part of middle area",moles; [4],Dark brown circle
same,"Color and shape of mole 5, central right part of middle area","moles; Jun. 20, 2013: Dark brown oval",Red circle-like
same,color of the senile plaques,"senile plaques; August, 6 weeks after starting cabergoline administration",started to become lighter
same,state of the senile plaques,"senile plaques; end of August, after 10 weeks oral cabergoline",clearly disappeared
same,state of the 5 senile plaques,"senile plaques; first 4 weeks (June 20 to July 15), oral twice/week, 2 mg/4 weeks, direct observation",no change was recognized
same,skin of the back of both hands,"senile plaques; from end of August, previously flecked with pigmented macules and dry",gradually started to become white and have lighter skin texture
same,size of the senile plaques,"senile plaques; from mid-August, one tablet (0.25 mg)/week oral",started to show a tendency to shrink in size
